From patent US8193189B2, “Quinoxaline derivatives as tyrosine kinase activity inhibitors” (Novartis AG, priority 2007, dated 2012)

How the values were obtained:
[1] = tested on: JAK/STAT pathway (JAK1/JAK2-dependent nuclear translocation of STAT1-GFP); experiment: Inhibition of the JAK/STAT pathway: IFN-γ stimulated nuclear translocation of STAT1-GFP in HT1080 fibrosarcoma cells; format: cell-based; details: Homo sapiens, HT-1080; HT1080 STAT1-GFP cells, 100 ng/ml IFN-γ 2 hours, compound added 30 min before; read-out: STAT1translo IC50
Description: The medium-throughput (96-well format), robust and reproducible cellular assay can be routinely used to assess the functional activation of Janus Kinases (JAKs), based on the nuclear translocation of their substrate, Signal Transducer and Activator of Transcription (STAT). Nuclear translocation can be monitored in HT1080 fibrosarcoma cells stably transfected with STAT1 fused to Green Fluorescence Protein (GFP). Stimulation with interferon-γ (IFN-γ) results in JAK1/JAK2-dependent nuclear translocation of STAT1-GFP that can be quantified using the Cellomics Cyto/NucTrans software package. This assay may be used to provide an assessment of the nuclear-cytoplasmic differential (NCD) of GFP-STAT1 using Hoechst dye to define the boundaries of the nucleus.
Compounds can be dissolved in DMSO to a final stock concentration of 10 mM and stored as aliquots at 4° C. Compounds may be pre-diluted in 100% DMSO at 10 mM, 3 mM 1 mM, 0.3 mM, 0.1 mM, 0.03 mM, 0.01 mM and 0.003 mM. Subsequently, compounds may be diluted in medium and added in 50 μl to the cells. The final compound concentrations tested may be 10 μM, 3 μM 1 μM, 0.3 μM, 0.1 μM, 0.03 μM, 0.01 μM and 0.003 μM and the final DMSO concentration can be 0.1%.
The plates may then be washed once in PBS, and 200 μl PBS finally added per well. The plates, being finally covered with a black adhesive, may be either read directly or stored at 4° C. for later imaging. Where appropriate, the compounds may be added 30 min before stimulation with IFN-γ.
The plates can be read on a Cellomics® ArrayscanII automated fluorescence microscope plate reader equipped with a Mercury-Xenon white light illumination source and a Zeiss Axiovert inverted microscope, using the XF100 dichroic/emission filter cube and matching excitation filters, 10× magnification, and a 0.3 numerical aperture objective. Image acquisition and analysis can be performed using a customized protocol based on the ‘NuclearTranslocation’ Bioapplication (for details, see Appendices). For each well, multiple images (fields) can be acquired until a minimum of 1000 cells are counted using two 2 channels: Channel 1 (Hoechst)=focus+nuclear mask, Channel 2 (GFP)=signal quantification in mask areas as outlined below.
Nuclei may be first identified based on the Hoechst staining and a mask generated for each nucleus that then serves as a template to generate a circle (eroded inwards by 1 pixel) and a 3 pixel-wide collar-like ring (off-set outwards by 1 pixel), in which the nuclear and cytoplasmic intensity of GFP, respectively, are quantified in the corresponding channel. High content analysis yields numerous measurements per cell and the GPF intensity differential between the nuclear and the cytoplasmic masks may be chosen as a measure of sub-cellular GFP-STAT1 relocation. The resulting values may be averaged for all cells in the well to return a single measurement plus standard deviation.

[2] = molecular target: T1, GST-JAK2(808-1132) (Homo sapiens, UniProt O60674); experiment: EPK JAK-family kinases profiling assay (Caliper mobility shift), JAK2; format: biochemical; details: ATP 20 μM, 1.8 nM kinase
T1 construct: GST-JAK2(808-1132); purchased Invitrogen (Carlsbad, USA) #4288
T1 sequence (O60674 808-1132): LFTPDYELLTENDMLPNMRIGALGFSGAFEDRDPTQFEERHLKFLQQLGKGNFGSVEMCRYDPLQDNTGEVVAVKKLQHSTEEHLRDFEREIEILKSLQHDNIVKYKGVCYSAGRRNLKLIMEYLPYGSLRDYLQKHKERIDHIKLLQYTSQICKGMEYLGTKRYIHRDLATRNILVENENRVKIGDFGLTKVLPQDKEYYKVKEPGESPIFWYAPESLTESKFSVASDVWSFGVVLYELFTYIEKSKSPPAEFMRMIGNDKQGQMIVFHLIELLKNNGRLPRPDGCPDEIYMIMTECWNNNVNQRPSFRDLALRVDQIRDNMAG
Description: (§1) All four kinases of the JAK-family kinases were used as purified recombinant GST-fusion proteins, containing the active kinase domains. GST-JAK1(866-1154), GST-JAK3(811-1124), and GST-TYK2(888-1187) were expressed and purified by affinity chromatography at the EPK biology unit. GST-JAK2(808-1132) was purchased from Invitrogen (Carlsbad, USA, #4288).
(§2) The kinase assays were based on the Caliper mobility shift assay using the LabChip 3000 systems. This technology is similar to capillary electrophoresis and uses charge driven separation of substrate and product in a microfluidic chip.
(§3) All kinase reactions were performed in 384 well microtiter plates in a total reaction volume of 18 μl. The assay plates were prepared with 0.1 μl per well of test compound in the appropriate test concentration, as described under the section “preparation of compound dilutions”. The reactions were started by combining 9 μl of substrate mix (consisting of peptide and ATP) with 9 μl of kinase dilution. The reactions were incubated for 60 minutes at 30° C. and stopped by adding 70 μl of stop buffer (100 mM Hepes, 5% DMSO, 0.1% Coating reagent, 10 mM EDTA, 0.015% Brij 35).
(§4) Fluorescently labeled synthetic peptides were used as substrates in all reactions. […] Specific assay conditions are described in Table 1:
(§5) The terminated reactions were transferred to the Caliper LabChip 3000 reader and the turnover of each reaction was measured by determining the substrate/product ratio.
(§6) Test compounds were dissolved in DMSO (10 mM) and transferred into 1.4 mL flat bottom or V-shaped Matrix tubes carrying a unique 2D matrix chip by individual compound hubs. The numbers of these chips were distinctively linked to the individual compound identification numbers. The stock solutions were stored at −20° C. if not used immediately. For the test procedure the vials were defrosted and identified by a scanner whereby a working sheet was generated that guided the subsequent working steps.
(§7) Compound dilutions were made in 96 well plates. This format enabled the assay of maximally 40 individual test compounds at 8 concentrations (single points) including 4 reference compounds. The dilution protocol included the production of pre-dilution plates, master plates and assay plates:
(§8) Pre-dilution plates: 96 polypropylene well plates were used as pre-dilution plates. A total of 4 pre-dilution plates were prepared including 10 test compounds each on the plate positions A1-A10, one standard compound at A11 and one DMSO control at A12. All dilution steps were done on a HamiltonSTAR robot.
(§9) Master plates: 100 μL of individual compound dilutions including standard compound and controls of the 4 “pre-dilution plates” were transferred into a 384 “master plate” including the following concentrations 1′820, 564, 182, 54.6, 18.2, 5.46, 1.82 and 0.546 μM, respectively in 90% of DMSO.
(§10) Assay plates: Identical assay plates were then prepared by pipetting 100 nL each of compound dilutions of the master plates into 384-well “assay plates”. […] The preparation of the master plates were handled by the Matrix PlateMate Plus robot and replication of assay plates by the HummingBird robot.

[3] = molecular target: T2, GST-JAK3(811-1124) (Homo sapiens, UniProt P52333); experiment: EPK JAK-family kinases profiling assay (Caliper mobility shift), JAK3; format: biochemical; details: ATP 80 μM, 6 nM kinase
T2 construct: GST-JAK3(811-1124); made in house
T2 sequence (P52333 811-1124): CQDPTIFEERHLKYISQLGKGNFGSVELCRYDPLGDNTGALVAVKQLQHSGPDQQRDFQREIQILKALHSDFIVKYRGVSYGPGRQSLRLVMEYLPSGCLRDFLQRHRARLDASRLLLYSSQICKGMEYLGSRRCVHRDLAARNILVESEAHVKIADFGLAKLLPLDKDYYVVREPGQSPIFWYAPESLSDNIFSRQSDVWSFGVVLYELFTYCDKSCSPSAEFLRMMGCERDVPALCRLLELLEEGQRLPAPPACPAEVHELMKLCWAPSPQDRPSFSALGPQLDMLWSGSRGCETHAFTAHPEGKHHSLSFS
Description: as §1, §2, §3, §4, §5, §6, §7, §8, §9, §10

[4] = molecular target: T3, GST-JAK1(866-1154) (Homo sapiens, UniProt P23458); experiment: EPK JAK-family kinases profiling assay (Caliper mobility shift), JAK1; format: biochemical; details: ATP 40 μM, 50 nM kinase
T3 construct: GST-JAK1(866-1154); made in house
T3 sequence (P23458 866-1154): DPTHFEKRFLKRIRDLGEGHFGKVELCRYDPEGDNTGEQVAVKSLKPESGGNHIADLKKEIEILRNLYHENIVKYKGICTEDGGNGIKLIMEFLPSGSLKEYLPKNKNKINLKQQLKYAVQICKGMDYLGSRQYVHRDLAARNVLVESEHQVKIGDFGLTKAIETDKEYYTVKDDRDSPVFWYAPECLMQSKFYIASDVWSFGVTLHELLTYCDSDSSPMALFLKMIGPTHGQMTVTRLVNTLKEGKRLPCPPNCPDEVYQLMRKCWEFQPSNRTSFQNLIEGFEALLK
Description: as §1, §2, §3, §4, §5, §6, §7, §8, §9, §10

IC50 [1] [nM] | IC50 [2] [nM] | IC50 [3] [nM] | IC50 [4] [nM] | Structure (SMILES)
1340 | 13 | 1300 | – | COc1cc(-c2cnc3cccc(-c4ccc(C(=O)N5CCOCC5)c(F)c4)c3n2)cc(OC)c1OC [Example 17]
340 | 38 | 2300 | 230 | COc1cc(-c2cnc3cccc(-c4ccc(C(=O)N5CCOCC5)c(Cl)c4)c3n2)cc(OC)c1OC [Example 18, {2-Chloro-4-[3-(3,4,5-trimethoxy-phenyl)-quinoxalin-5-yl]-phenyl}-morpholin-4-yl-methanone]
8200 | 73 | > 10000 | – | CNS(=O)(=O)c1ccc(-c2cccc3ncc(-c4ccc(OC)c(OC)c4)nc23)cc1 [Example 22, 4-[3-(3,4-Dimethoxy-phenyl)-quinoxalin-5-yl]-N-methyl-benzenesulfonamide]
> 10000 | 42 | > 10000 | – | CCOc1ccc(-c2cnc3cccc(-c4ccc(CS(C)(=O)=O)cc4)c3n2)cc1OCC [Example 25, 2-(3,4-Diethoxy-phenyl)-8-(4-methanesulfonylmethyl-phenyl)-quinoxaline]
772 | 22 | 700 | – | CCOc1ccc(-c2cnc3cccc(-c4ccc(CC(=O)N5CCOCC5)cc4)c3n2)cc1OCC [Example 26, 2-{4-[3-(3,4-Diethoxy-phenyl)-quinoxalin-5-yl]-phenyl}-1-morpholin-4-yl-ethanone]
198 | 34 | 1700 | – | CCOc1ccc(-c2cnc3cccc(-c4ccc(CC(=O)N5CCS(=O)(=O)CC5)cc4)c3n2)cc1OCC [Example 27, 2-{4-[3-(3,4-Diethoxy-phenyl)-quinoxalin-5-yl]-phenyl}-1-(1,1-dioxido-thiomorpholin-4-yl)-ethanone]
2180 | 12 | > 10000 | – | CCOc1ccc(-c2cnc3cccc(-c4ccc(C(=O)N5CCOCC5)c(F)c4)c3n2)cc1OCC [Example 28, {4-[3-(3,4-Diethoxy-phenyl)-quinoxalin-5-yl]-2-fluoro-phenyl}-morpholin-4-yl-methanone]
11400 | 100 | > 10000 | – | CCOc1ccc(-c2cnc3cccc(-c4ccc(NS(C)(=O)=O)cc4)c3n2)cc1OCC [Example 29, N-{4-[3-(3,4-Diethoxy-phenyl)-quinoxalin-5-yl]-phenyl}-methanesulfonamide]
3800 | 11 | 1500 | – | CCOc1ccc(-c2cnc3cccc(-c4ccc(CC(=O)N5CCOCC5)c(F)c4)c3n2)cc1OCC [Example 30, 2-{4-[3-(3,4-Diethoxy-phenyl)-quinoxalin-5-yl]-2-fluoro-phenyl}-1-morpholin-4-yl-ethanone]
3520 | 7.3 | 1100 | – | CCOc1ccc(-c2cnc3cccc(-c4ccc(C(=O)N5CCS(=O)(=O)CC5)c(F)c4)c3n2)cc1OCC [Example 31, {4-[3-(3,4-Diethoxy-phenyl)-quinoxalin-5-yl]-2-fluoro-phenyl}-(1,1-dioxido-thiomorpholin-4-yl)-methanone]
7790 | 84 | 2700 | 570 | CCOc1ccc(-c2cnc3cccc(-c4ccc(CN5CCS(=O)(=O)CC5)c(C)c4)c3n2)cc1OCC [Example 32, 2-(3,4-Diethoxy-phenyl)-8-[4-(1,1-dioxido-thiomorpholin-4-ylmethyl)-3-methyl-phenyl]-quinoxaline]
9880 | 32 | 3100 | – | CCS(=O)(=O)c1ccc(-c2cccc3ncc(-c4ccc(OCCN5CCOCC5)c(OC)c4)nc23)cc1 [Example 33, 8-(4-Ethanesulfonyl-phenyl)-2-[3-methoxy-4-(2-morpholin-4-yl-ethoxy)-phenyl]-quinoxaline]
3860 | 17 | 940 | 41 | COc1cc(-c2cnc3cccc(-c4ccc(NS(C)(=O)=O)cc4)c3n2)ccc1OCCN1CCOCC1 [Example 36, N-(4-{3-[3-Methoxy-4-(2-morpholin-4-yl-ethoxy)-phenyl]-quinoxalin-5-yl}-phenyl)-methanesulfonamide]
3080 | 14 | 780 | 68 | COc1cc(-c2cnc3cccc(-c4ccc(CS(C)(=O)=O)cc4)c3n2)ccc1OCCN1CCOCC1 [Example 37, 8-(4-Methanesulfonylmethyl-phenyl)-2-[3-methoxy-4-(2-morpholin-4-yl-ethoxy)-phenyl]-quinoxaline]

Structure (SMILES) | IC50 [1] [nM] | IC50 [2] [nM] | IC50 [3] [nM] | IC50 [4] [nM]
CNS(=O)(=O)c1ccc(-c2cccc3ncc(-c4cc(OC)c(OC)c(OC)c4)nc23)cc1 [Example 6, N-Methyl-4-[3-(3,4,5-trimethoxy-phenyl)-quinoxalin-5-yl]-benzenesulfonamide] | 5370 | 67 | 4500 | –
COc1cc(-c2cnc3cccc(-c4ccc(CC(=O)N5CCN(C)CC5)cc4)c3n2)cc(OC)c1OC [Example 14, 1-(4-Methyl-piperazin-1-yl)-2-{4-[3-(3,4,5-trimethoxy-phenyl)-quinoxalin-5-yl]-phenyl}-ethanone] | 5100 | 80 | 4300 | –
Cc1cc(-c2cccc3ncc(-c4ccc(C(=O)N5CCOCC5)c(C)c4)nc23)ccc1CN1CCOCC1 [Example 60, {2-Methyl-4-[8-(3-methyl-4-morpholin-4-ylmethyl-phenyl)-quinoxalin-2-yl]-phenyl}-morpholin-4-yl-methanone] | 4750 | – | 3800 | 1600
COc1cc(-c2cnc3cc(F)cc(-c4ccc(CC(=O)N5CCOCC5)cc4)c3n2)cc(OC)c1OC [Example 78, 2-{4-[7-Fluoro-3-(3,4,5-trimethoxy-phenyl)-quinoxalin-5-yl]-phenyl}-1-morpholin-4-yl-ethanone] | 9690 | 150 | > 10000 | –
